The test system of data set [1] is subjects suffering from IBS. The experiment in a line: Effects of MN-221 on human esophageal peristalsis (manometry, heart rate, finger tremor) in IBS subjects. The class given is in vivo. From the text: This study investigates the inhibitory influence of beta-2-adrenergic stimulation by MN-221 on esophageal motility with little to no incidence of significant adverse side effects. In the study, esophageal peristalsis is studied in subjects suffering from IBS. The subjects have no history of gastrointestinal or cardiovascular disease. Subjects are considered to have the irritable bowel syndrome if they have an abdominal pain with or without diarrhea or constipation. Relief of pain by defecation, abdominal distension, a feeling of incomplete evacuation, and/or a response to a high-residue diet are taken as useful additional symptoms. The blood picture, erythrocyte sedimentation rate, and results of sigmoidoscopy, rectal biopsy, and barium enema are normal in all subjects. The symptoms of the subjects, including dysphagia and heartburn, are recorded on data sheets for correlation with manometric findings.
Each subject is orally given MN-221, 5 mg three times daily, for 10 days. […] At each session esophageal peristaltic pressure, heart rate, and finger tremor are assessed.
Manometric studies are performed with a triple-lumen tube with each channel perfused with water, 0.5 ml/min, via a low-compliance capillary system. […] Thus, pressure is recorded about 18 cm proximal to the LES (proximal esophagus), about 10 cm proximal to the LES (middle esophagus), and about 2 cm proximal to the LES (distal esophagus).
After a resting period of 20 min., esophageal peristalsis in response to 20 wet swallows (water bolus of 5 ml, room temperature) is recorded. […] Each recording curve is coded and read by one investigator who is not aware of the subject's study day. The amplitude of the peristaltic pressure waves is measured at each recording point, and an individual mean value for the 20 swallows is calculated for each examination.
At each session, heart rate is recorded in the resting subject and calculated as a mean value for 2 min. Finger tremor are assessed with an optical method (e.g., Opto-Tremor Graph, Draco), and the middle finger of the right hand is chosen for measurement. […]

Data set [2] has as its system subjects with the irritable bowel syndrome (IBS). The experiment in a line: Effects of MN-221 on rectosigmoid motility (intraluminal pressure, systemic effects, plasma levels) in IBS subjects. The class given is in vivo, human. From the text:
In this study, subjects with the irritable bowel syndrome (IBS) are studied with regard to the effects of MN-221 on rectosigmoid motility.
Men and women aged 24-52 years are included in the study. The diagnosis of IBS is made on the basis of the following criteria: 1) symptoms lasting more than few months; 2) abdominal pain with or without relation to meals; 3) constipation or a combination of diarrhea and constipation; 4) normal colonic barium enema and sigmoidoscopy; 5) negative test for lactose intolerance; and 6) negative finding on stool culture.
The subjects are all symptomatic at the time of the study. The subjects are taking no medications of significant importance for intestinal motility. Informed consent is obtained from each subject.
After a 12 hours fast, all subjects undergo sigmoidoscopy without air insufflations. A probe with one to three polyethylene catheters is inserted through the sigmoidoscope so that the proximal catheter is about 18-20 centimeter (cm) from the anal margin, the tip of the second catheter about 5 cm below, and the third catheter is positioned just inside the internal sphincter. An about 5-cm-long balloon surrounds each of the two distal catheters. The distal balloon is inflated with about 20 milliliter (mL) of air to prevent the device from moving in the distal direction. The balloon in the upper rectum, connected to the middle catheter, is kept inflated with about 80 ml of air in 10 of the subjects and with about 60 mL in the other 2 subjects throughout the recording sessions. Each subject has the same balloon volume during the three examinations.
Intra-luminal pressure is measured from the proximal rectal balloon and the sigmoid catheter (inside diameter, about 1.67 millimeter (mm)), which is open tipped with a side orifice of about 1.5 mm diameter.
The catheter is continuously perfused with body-temperature water at 3.5 mL/h by means of an infusion pump. Pressure is transmitted to transducers (e.g., Statham P 23 Db, Statham Instruments, Hato Ray, Puerto Rico) and recorded on a Grass RPS 7C polygraph (e.g., Grass Instrument Co., Quincy, Mass.). To determine motility, the area under the pressure curves is continuously determined by integrators (such as, e.g., Grass 7P 10). As an index of contractile activity, the total area minus the area under an estimated basal pressure line is used. The principle for motility calculation is described in detail in Abrahamsson et al. Dig Dis Sci 1983, 28, 590-594.
Motility index is expressed as kPa×min (1 kPa×min=7.5 mm Hg×min). The study is randomized and double blinded. Each subject is investigated on 3 different days with not less than 5 days between each investigation to avoid any possible influence of an earlier drug infusion. After an initial rest period of 30 minutes (min), pressure is quantified for three periods of 25 min. The first period, designated the control period, is preceded by saline infusion, 1 mL/min, for 5 min. The following two test periods are each preceded by an infusion of 0.25 mg MN-221 intravenously to a total amount of 0.50 mg on the 1st day, 1.0 mg on the 2nd day, and 5 ml placebo (plus 5 mL saline) on the 3rd day.
The blood pressure and heart rate are measured by a sphygmomanometer 10 and 25 min after the end of each drug infusion. […]
Results are expressed as the mean±SEM. […]
The plasma concentration of MN-221 is determined by liquid chromatography and mass spectrometry.

For data set [3], the system named is subjects suffering from IBS. The settings on record: including increase in the heart rate and finger tremors; cited from earlier work.
In data set [4] the test system is subjects with the irritable bowel syndrome (IBS). To be noted: including increase in systolic blood pressure and the heart rate; cited from earlier work.
The mark [5] stands for this setting: during oral medication, 5 mg three times daily, 10 days.

With `CN(C)C(=O)COc1ccc2c(c1)CC(NCC(O)c1ccc(O)c(CCO)c1)CC2` (single isomer, unassigned; (-)) [MN-221], in data set [1] (setting [5]), the finger tremor result was “do not change”. The heart rate entry in data set [1] (setting [5]) is on record as “do not change”. The adverse side effects entry is “little to no adverse side effects” in data set [1] (oral medication, IBS subjects) and “little to no adverse side effects” in data set [2] (intravenous infusion, IBS subjects). In addition, the “complaints or discomfort among the subjects” value in data set [2] (after infusion of MN-221) is “No major complaints or discomfort”. Also, the plasma concentrations result in data set [2] (after intravenous infusion, 0.50 and 1.0 mg total) was “within the therapeutic levels”. Also, the entries for the “systolic and diastolic blood pressure and heart rate” value in data set [2] (infusion to a total of 0.50 mg intravenously) and in data set [2] (infusion to a total of 1.0 mg intravenously) were “no significant increase in the systolic blood pressure; decrease in the diastolic blood pressure; and/or increase in the heart rate” and “no significant increase in systolic blood pressure; decrease in diastolic blood pressure; and/or increase in heart rate”, respectively.
For `CC(C)(C)NCC(O)c1cc(O)cc(O)c1` (stereo not shown) [terbutaline], the “adverse side effects (comparison drug)” value in data set [3] and in data set [4] was “undesirable incidence of significant adverse side effects” in each case.

(Values after patent US8518995B2, “Methods and compositions for the treatment of irritable bowel syndrome” (MediciNova, Inc., priority 2010, dated 2013).)
